The nature of assay [1]: Activation of recombinant Escherichia coli HslU C-tail expressed in Escherichia coli BL21( DE3) cells using Z-GGL-AMC as substrate by fluorescence analysis.
For a further assay, the system named is Escherichia coli. Put plainly: Activation of recombinant Escherichia coli HslV expressed in Escherichia coli BL21( DE3) cells using Z-GGL-AMC as substrate by fluorescence analysis.

Consider `O=C(Cn1c(-c2ccccn2)nc2ccccc21)c1ccc(O)c(O)c1`, for which the values for the ED50 (in assay [1]; in the assay with Escherichia coli) were 2600 nM and 600 nM, respectively.

On to `O=C(Cn1c(-c2ccccn2)nc2ccccc21)c1ccc([N+](=O)[O-])cc1`, for which the ED50 in assay [1] was 2600 nM; in the assay with Escherichia coli, 600 nM.

For `O=C(N/N=C/c1cc(=O)c2ccccc2o1)c1ccccc1`, the ED50 in assay [1] worked out at 2600 nM; in the assay with Escherichia coli, 1300 nM.

As for `O=c1c2ccccc2nc(-c2ccc([N+](=O)[O-])cc2)n1/N=C/c1c(O)ccc2ccccc12`, the ED50 was found to be 2600 nM in assay [1] and 900 nM in the assay on Escherichia coli.

(Values after ChEMBL document CHEMBL2163308, “Small molecule activators of proteasome-related HslV peptidase” (Bioorg Med Chem Lett, 2012).)
